Measured values from US20230192617A1, “AZABICYCLIC(THIO)AMIDES AS FUNGICIDAL COMPOUNDS” (Bayer CropScience Aktiengesellschaft, priority 2020, published 2023).

How the values were obtained:
Alternaria alternata = Alternaria alternata in vitro cell test; format: cell-based; conditions: 120 h, 20 ppm of active ingredient, liquid culture, 5 days incubation, spectrometric measurement of mycelium growth, read-out: efficacy (inhibition of fungal growth)
In short: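 Liquid culture assay in which A. alternata spores in medium received DMSO-solubilized compound (final DMSO ≤1%). After 5 days, mycelium growth was measured spectrometrically. Inhibition was calculated against fungicide-free control wells.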

[1] = Measurement of Log P values by HPLC on reversed phase columns (EEC directive 79/831 Annex V.A8); format: physicochemical; conditions: reversed phase HPLC column
In short: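 Reversed-phase HPLC with UV detection per EEC 79/831 Annex V.A8, linear 10–95% acetonitrile gradient. Aqueous eluent: 0.1% formic acid (acidic), 0.001 M ammonium acetate (neutral), or 0.1% phosphoric acid (acidic); multiple values in one method joined by "+".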

Alternaria brassicae = test: In vivo preventive test on Alternaria brassicae (leaf spot on radish or cabbage); conditions: 500 ppm of active ingredient, preventive spray on radish or cabbage, evaluated 3 to 4 days after inoculation, read-out: efficacy
In short: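 Young radish or cabbage plants were sprayed with compound dissolved in DMSO/acetone/Tween 80 and diluted in water; controls received solvent only. Inoculation by spraying A. brassicae spore suspension 24 h later, then 3–4 days at 20 °C and 100% relative humidity.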

Botrytis cinerea = test: In vivo preventive test on Botrytis cinerea (grey mould); conditions: 500 ppm of active ingredient, preventive spray on gherkin or cabbage, evaluated 4 to 5 days after inoculation, read-out: efficacy
In short: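 Young gherkin or cabbage plants were sprayed with compound in DMSO/acetone/Tween 80 diluted in water, then inoculated 24 hours later with a B. cinerea spore suspension. Incubation lasted 4 to 5 days: gherkin at 17° C., 90% relative humidity; cabbage at 20° C., 100% relative humidity.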

Sphaerotheca fuliginea = test: In vivo preventive test on Sphaerotheca fuliginea (powdery mildew on cucurbits); conditions: Podosphaera fuliginea, 192 h; 500 ppm of active ingredient; preventive spray on gherkin; evaluated 8 days after inoculation; read-out: efficacy
Experimental: B-4. in vivo preventive test on Sphaerotheca fuliginea (powdery mildew on cucurbits) [table] The active ingredients were made soluble and homogenized in a mixture of Dimethyl sulfoxide/Acetone/Tween® 80 and then diluted in water to the desired concentration. The young plants of gherkin were treated by spraying the active ingredient prepared as described above. Control plants were treated only with an aqueous solution of Acetone/Dimethyl sulfoxide/Tween® 80. After 24 hours, the plants were contaminated by spraying the leaves with an aqueous suspension of Sphaerotheca fuliginea spores. The contaminated gherkin plants were incubated for 8 days at 20° C. and at 70-80% relative humidity.

[2] = test system: Colletotrichum lindemuthianum; test: B-8. Colletotrichum lindemuthianum in vitro cell test; format: cell-based; conditions: 144 h, 20 ppm of active ingredient, 6 days incubation, liquid culture, absorbance, read-out: efficacy (inhibition of fungal growth)
In short: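 Spore suspension of C. lindemuthianum in liquid medium exposed to DMSO-solubilized compounds (final DMSO ≤1%) for 6 days. Mycelial growth read by absorbance, with inhibition calculated relative to compound-free control wells.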

[3] = method [a]: LC-UV, acidic range, 0.1% formic acid in water and acetonitrile as eluent

Row | Compound | inhibition at 20 ppm (Alternaria alternata) | chromatographic logP [1, 3] | pest or weed control at 500 ppm (Alternaria brassicae) | pest or weed control at 500 ppm (Botrytis cinerea) | pest or weed control at 500 ppm (Sphaerotheca fuliginea) | inhibition at 20 ppm [2] | chromatographic logP ([1]; method [b]: LC-UV, neutral range, 0.001 molar ammonium acetate solution in water and acetonitrile as eluent)
1 | O=C(NCC(F)(F)c1ccc(Br)cc1Cl)c1c(Oc2cccc(C(F)F)c2)nnc2ccccc12 [I-035] | 90 to 100% | 4.14 | 90 to 100% | 90 to 100% | 70 to 79% | 90 to 100% | –
2 | O=C(NCC(F)(F)c1ccc(Cl)cc1)c1c(Oc2cncc(C(F)(F)F)c2)nnc2ccccc12 [I-026] | 90 to 100% | 3.61 | 90 to 100% | 90 to 100% | 90 to 100% | 90 to 100% | –
3 | O=C(NCC(F)(F)c1ccc(Br)cc1Cl)c1c(Oc2cncc(C(F)(F)F)c2)nnc2ccccc12 [I-027] | 90 to 100% | 4.08 | 90 to 100% | 90 to 100% | 90 to 100% | 90 to 100% | –
4 | Cc1ccc(CCNC(=O)c2c(Oc3cccc(C(F)(F)F)c3)nnc3cc(C)ccc23)c(C)c1 [I-004, N-[2-(2,4-dimethylphenyl)ethyl]-7-methyl-3-[3-(trifluoro-methyl)phenoxy]cinnoline-4-carboxamide] | 90 to 100% | 4.51 | 90 to 100% | 90 to 100% | 90 to 100% | 90 to 100% | –
5 | O=C(NC[C@H](F)c1ccc(Cl)cc1Cl)c1c(Oc2cccc(C(F)(F)F)c2)cnc2ccccc12 (racemic) [I-043] | 90 to 100% | 4.46 | 90 to 100% | 90 to 100% | 90 to 100% | 90 to 100% | –
6 | Cc1cccc(Oc2nnc3ccccc3c2C(=O)N[C@@H](C)c2cccc(C(F)(F)F)c2)c1 (racemic) [I-020] | 80 to 89% | 3.79 | 90 to 100% | 90 to 100% | 70 to 79% | 70 to 79% | –
7 | O=C(NC[C@H](F)c1ccc(Br)cc1Cl)c1c(Oc2cccc(C(F)(F)F)c2)cnc2ccccc12 (racemic) [I-041] | 90 to 100% | 4.56 | 90 to 100% | 90 to 100% | 90 to 100% | 90 to 100% | –
8 | Cc1ccc(C(F)(F)CNC(=O)c2c(Oc3cncc(C(F)(F)F)c3)nnc3ccccc23)c(C)c1 [I-025] | 90 to 100% | 3.87 | 90 to 100% | 90 to 100% | 90 to 100% | 90 to 100% | –
9 | O=C(NCC(F)(F)c1ccc(Cl)cc1)c1c(Oc2cccc(Cl)c2)nnc2ccccc12 [I-012] | 90 to 100% | – | 90 to 100% | 90 to 100% | 90 to 100% | 90 to 100% | –
10 | O=C(N[C@H]1CCCc2cc(Br)ccc21)c1c(Oc2cccc(C(F)(F)F)c2)cnc2c1OCCO2 (racemic) [I-111] | – | 4.03 | 90 to 100% | 90 to 100% | 90 to 100% | 90 to 100% | 3.99
11 | Cc1ccc(C(F)(F)CNC(=O)c2c(Oc3cccc(C(F)(F)F)c3)nnc3c2CCOCC3)c(C)c1 [I-114, N-[2-(2,4-dimethylphenyl)-2,2-difluoro-ethyl]-3-[3-(trifluoro-methyl)phenoxy]-5,6,8,9-tetrahydrooxepino[4,5-c]pyridazine-4-carboxamide] | 90 to 100% | 3.58 | 70 to 79% | 90 to 100% | 90 to 100% | 90 to 100% | –
12 | COc1ccc2nnc(Oc3cccc(C(F)(F)F)c3)c(C(=O)NCCc3ccc(C)cc3C)c2c1 [I-010] | 90 to 100% | 4.29 | 80 to 89% | 90 to 100% | 90 to 100% | – | –
